Entries after “also recorded” stand apart in the source; their conditions may differ.
Tested on: advanced NSCLC patients with ALK or ROS1 rearrangement
Experiment: Phase 1 dose-expansion phase: antitumor activity (RECIST 1.1, investigators)
Format: in vivo, human
Settings: for objective response rate / intracranial objective response rate: Total; for intracranial objective response rate: Baseline measurable CNS metastasis
From the text: Patients continued treatment until documented disease progression, unacceptable toxicity, withdrawal of consent, the start of a new anticancer treatment, death, loss of follow-up, or end of the study (whichever occurred first). Patients were permitted to continue treatment after progression if they were still experiencing clinical benefit, at the discretion of the investigator. Patients performed imaging evaluation at baseline, with computed tomography or magnetic resonance imaging of the chest, abdomen, pelvis, and brain. In the dose-escalation phase, the first efficacy evaluation was done after 3-week continuous administration of WX-0593 and every 6 weeks thereafter. […] AEs were assessed in all patients throughout this study and graded per the National Cancer Institute Common Terminology Criteria for Adverse Events version 4.03. In the dose-expansion phase, the primary endpoint was ORR assessed by investigators. Other key secondary endpoints included PFS, DCR, time to progression (TTP), DOR, intracranial response, and safety. Additionally, overall survival (OS) was assessed as a prespecified exploratory endpoint. ORR was defined as the proportion of patients who had best overall response, including CR or PR. PFS was calculated from the date of the first dose of WX-0593 to the date of documented disease progression or death (whichever occurred first). DCR was defined as the proportion of patients who had best overall response, including CR, PR, or SD, with a duration of at least 12 weeks. TTP was calculated from the date when the first dose of WX-0593 was given to first documented disease progression. […] OS was calculated from the date when the first dose of WX-0593 was administered to the date of death from any cause. Safety analysis was performed in the SS, which was comprised of all patients treated with one dose of WX-0593 and with safety data recorded. Efficacy analysis was performed in the FAS, which was defined as all patients treated with at least one dose of WX-0593. The PK analysis set included all patients treated with at least one dose of WX-0593 and with at least one evaluable PK sample. […] Descriptive statistics were carried out to summarize patients’ baseline characteristics and safety. […] All time-to-event data (PFS, TTP, DOR, and OS) and their corresponding 95% CIs were estimated by Kaplan–Meier methods. PK parameter analyses were done with Phoenix WinNonlin version 8.0. All other statistical analyses were conducted using SAS version 9.4.

[1] = ROS1-positive patients, 120 mg (n=3)
[2] = ROS1-positive patients, 180 mg (n=6)
[3] = ROS1-positive patients, total (n=9)
[4] = baseline measurable or non-measurable brain metastasis
[5] = baseline measurable or non-measurable brain metastasis (n = 58)
[6] = both crizotinib and other ALK TKIs
[7] = crizotinib as the only ALK TKI treatment

COc1cc(N2CCC3(CCN(C)CC3)CC2)ccc1Nc1ncc(Cl)c(Nc2ccccc2P(C)(C)=O)n1 [WX-0593]
DOR, median (95% CI) (ROS1-positive patients, 120 mg): NR (NR, NR) | PFS, median (95% CI) (ROS1-positive patients, 120 mg): 2.76 (1.35, 2.76) mo | TTP, median (95% CI) (ROS1-positive patients, 120 mg): 2.76 (1.35, 2.76) mo | DCR (95% CI) [1]: 66.7% (9.4%, 99.2%) | ORR (95% CI) [1]: 0 (0%, 70.8%) | PFS, number of events (%) [1]: 3 (100%) | TTP (mo), n (%) [1]: 3 (100%) | DOR, median (95% CI) (ROS1-positive patients, 180 mg): NR (NR, NR) | PFS, median (95% CI) (ROS1-positive patients, 180 mg): NR (1.35, NR) | TTP, median (95% CI) (ROS1-positive patients, 180 mg): NR (1.35, NR) | DCR (95% CI) [2]: 66.7% (22.3%, 95.7%) | ORR (95% CI) [2]: 66.7% (22.3%, 95.7%) | PFS, number of events (%) [2]: 2 (33.3%) | TTP (mo), n (%) [2]: 2 (33.3%) | DOR, median (95% CI) (ROS1-positive patients, total): NR (NR, NR) | PFS, median (95% CI) (ROS1-positive patients, total): 2.76 (1.35, NR) mo | TTP, median (95% CI) (ROS1-positive patients, total): 2.76 (1.35, NR) mo | ORR (95% CI) [3]: 44.4% | PFS, number of events (%) [3]: 5 (55.6%) | TTP (mo), n (%) [3]: 5 (55.6%) | ORR (ROS1-rearranged, crizotinib naive): 80.0% | median PFS (ROS1 rearrangement, crizotinib-naive (n = 5)): not reached | objective response rate (ALK-rearranged patients): 58.2% (53/91, 47.4-68.5%) | objective response rate (ALK-rearranged patients, ALK TKI naive): 76.3% (29/38, 59.8-88.6%) | objective response rate (ALK-rearranged patients, ALK TKI naive, chemotherapy naïve): 85.0% (17/20, 62.1-96.8%) | objective response rate (ALK-rearranged patients, ALK TKI naive, received chemotherapy before): 66.7% (12/18, 41.0-86.7%) | objective response rate (ALK-rearranged patients, Crizotinib and other ALK TKIs): 40.0% (2/5, 5.3-85.3%) | objective response rate (ALK-rearranged patients, Crizotinib only): 45.7% (21/46, 30.9-61.0%) | objective response rate (ALK-rearranged patients, Other ALK TKIs): 50.0% (1/2, 1.3-98.7%) | objective response rate (Baseline CNS metastasis): 22.4% (13/58, 12.5-35.3%) | objective response rate (Baseline CNS metastasis, ALK TKI naive): 25.0% (5/20, 8.7-49.1%) | objective response rate (Baseline CNS metastasis, Crizotinib only): 21.2% (7/33, 9.0-38.9%) | objective response rate (Baseline CNS metastasis, Radiotherapy before): 10.5% (2/19, 1.3-33.1%) | objective response rate (Baseline CNS metastasis, Radiotherapy naïve): 28.2% (11/39, 15.0-44.9%) | intracranial objective response rate: 46.7% (7/15, 21.3-73.4%) | intracranial objective response rate (ALK TKI naive): 50.0% (2/4, 6.8-93.2%) | intracranial objective response rate (Crizotinib only): 50.0% (5/10, 18.7-81.3%) | intracranial objective response rate (Radiotherapy before): 28.6% (2/7, 3.7-71.0%) | objective response rate (Prior ALK TKI treatment: Crizotinib and other ALK TKI): 40.0% (2/5, 5.3-85.3%) | objective response rate (Prior ALK TKI treatment: Crizotinib only): 42.0% (21/50, 28.2-56.8%) | objective response rate (ROS1-rearranged patients): 44.4% (4/9, 13.7-78.8%) | objective response rate (ROS1-rearranged patients, Crizotinib naive): 80.0% (4/5, 28.4-99.5%) | objective response rate (ROS1-rearranged patients, Received Crizotinib before): 0 (0/4, 0-60.2%) | objective response rate (dose expansion phase, Prior ALK TKI treatment: ALK TKI naive): 76.2% (32/42, 60.5-87.9%) | DOR, median (95% CI) (all patients, 120 mg): NR (5.52, NR) | PFS, median (95% CI) (all patients, 120 mg): NR (6.83, NR) | TTP, median (95% CI) (all patients, 120 mg): NR (6.87, NR) | DCR (95% CI) (all patients, 120 mg (n=50)): 82.0% (68.6%, 91.4%) | PFS, number of events (%) (all patients, 120 mg (n=50)): 15 (30.0%) | DOR, median (95% CI) (all patients, 180 mg): NR (5.49, NR) | PFS, median (95% CI) (all patients, 180 mg): NR (NR, NR) | TTP, median (95% CI) (all patients, 180 mg): NR (NR, NR) | DCR (95% CI) (all patients, 180 mg (n=49)): 85.7% (72.8%, 94.1%) | PFS, number of events (%) (all patients, 180 mg (n=49)): 10 (20.4%) | DOR, median (95% CI) (all patients, total): not reached (NR) (95% CI 5.52 months to NR); also recorded: NR (5.65, NR) | PFS, median (95% CI) (all patients, total): not reached (95% CI 6.93 months to NR); also recorded: NR (6.93, NR) | TTP, median (95% CI) (all patients, total): NR (6.93, NR) | intracranial ORR (baseline measurable CNS metastasis, radiotherapy before): 28.6% | intracranial ORR (baseline measurable CNS metastasis, radiotherapy naive): 62.5% | intracranial ORR (baseline measurable brain metastasis): 46.7% | intracranial ORR (baseline measurable brain metastasis, ALK TKI naive): 50% | intracranial ORR (baseline measurable brain metastasis, crizotinib before): 50% | intracranial ORR [4]: 22.4% | median PFS [4]: not reached (95% CI 6.90 months to NR) | patients with intracranial PR [5]: 7 | patients with intracranial complete remission (CR) [5]: 6 | DCR [6]: 100% | ORR [6]: 40.0% | median PFS [6]: not reached | DCR [7]: 76.0% | ORR [7]: 42.0% | median PFS (previously only crizotinib): 6.83 months

— article PMC8795197, “Safety and activity of WX-0593 (Iruplinalkib) in patients with ALK- or ROS1-rearranged advanced non-small cell lung cancer: a phase 1 dose-escalation and dose-expansion trial” (Signal Transduction and Targeted Therapy, 2022)
